Laboratory results: article PMC10439952, “JT002, a small molecule inhibitor of the NLRP3 inflammasome for the treatment of autoinflammatory disorders” (Scientific Reports, 2023)

What was measured:
Type in all cases: cell-based
[1] = test system: autocatalytic cleavage of pro-caspase-1 (p45) into the p10 subunit; assay: Western blot for caspase-1 p10 in LPS + nigericin stimulated mouse BMDM lysates and supernatants; conditions: LPS + nigericin treated mBMDMs, compound 10 µM
Protocol: BMDMs were activated with LPS and nigericin as described above and were lysed in situ with 50 μL of 4× NuPAGE LDS sample buffer (Fisher Scientific, Hampton, NH) + 5% β-mercaptoethanol and prepared for polyacrylamide gel electrophoresis. Samples were run on NuPAGE Bis–Tris gels (Fisher Scientific, Hampton, NH) and transferred to polyvinylidene difluoride (PVDF) membranes (Fisher Scientific, Hampton, NH) using the iBlot® 2 Dry Blotting System (Fisher Scientific, Hampton, NH). Washed PVDF membranes were blocked and then probed with the following primary antibodies: procaspase-1 + p10 + p12 [EPR16883] (Abcam, Cambridge, MA), β-actin (AC-74, Sigma-Aldrich, St. Louis, MO) and NLRP3 [Cryo-2] (AdipoGen Life Sciences, San Diego, CA). Bound primary antibodies were detected using HRP-labeled secondary antibodies and membranes were imaged with an Azure c300 imager (Azure Biosystems, Dublin, CA). Bands were quantitated using ImageJ software.

NLRP3 inflammasome [2] = target: T1, NLRP3 inflammasome (Mus musculus, UniProt Q8R4B8); assay: Inhibition of IL-1β production in mouse PBMCs stimulated by LPS + ATP; parameters: host or cells: mouse PBMCs; mouse bone-marrow derived macrophages; mouse whole blood (C57BL/6 in the ex vivo study); conditions: Mouse PBMC, read-out: Geo Av IC50, IL-1β
Protocol: (§1) Inflammasome activation and whole blood assays were essentially carried out as described earlier. Details can be found in the supplementary information section accompanying this publication. A protocol for blood draws from healthy volunteers and use of the blood in preclinical assays was approved by Western Institutional Review Board, Inc (Puyallup, WA, USA). Informed consent was obtained from each donor prior to the first blood draw.
(§2) Cell viability was determined by addition of an equal volume of CellTiter-Glo® 2.0 reagent (Promega) to the remaining cells/supernatant in each well. Intracellular Caspase-1 activity was measured using the Caspase-Glo® assay (Promega) according to the manufacturer’s instructions. The biochemical capsase-1 assay was conducted at Reaction Biology Corporation (Malvern, USA). Human IL-1β, IL-1α, and TNFα and mouse IL-1β were measured in cell culture supernatants using homogeneous time resolved fluorescence assay kits (HTRF, Cisbio, Codolet, France). Human IL-18 was measured in cell culture supernatants using an ELISA kit (R&D Systems, Minneapolis, MN, USA). Plasma IL-1β concentrations were determined by Quantikine® ELISA (R&D Systems, Minneapolis, MN).
(§3) 4H). MS: m/z 433.1 (M+H+). […]

NLRP3 inflammasome [3] = target: T1, NLRP3 inflammasome; assay: Inhibition of IL-1β production in mouse BMDMs stimulated by LPS + nigericin; parameters: host or cells: mouse PBMCs; mouse bone-marrow derived macrophages; mouse whole blood (C57BL/6 in the ex vivo study); conditions: Mouse BMDM, read-out: Geo Av IC50, IL-1β
Protocol: as §1, §2, §3

NLRP3 inflammasome [4] = target: T1, NLRP3 inflammasome; assay: Inhibition of non-canonical NLRP3 pathway IL-1β production in mouse BMDMs (Pam3CSK4 + transfected LPS); parameters: host or cells: mouse PBMCs; mouse bone-marrow derived macrophages; mouse whole blood (C57BL/6 in the ex vivo study); conditions: Mouse BMDM, read-out: Geo Av IC50, IL-1β
Protocol: as §1, §2, §3

T1 sequence (Q8R4B8 whole entry): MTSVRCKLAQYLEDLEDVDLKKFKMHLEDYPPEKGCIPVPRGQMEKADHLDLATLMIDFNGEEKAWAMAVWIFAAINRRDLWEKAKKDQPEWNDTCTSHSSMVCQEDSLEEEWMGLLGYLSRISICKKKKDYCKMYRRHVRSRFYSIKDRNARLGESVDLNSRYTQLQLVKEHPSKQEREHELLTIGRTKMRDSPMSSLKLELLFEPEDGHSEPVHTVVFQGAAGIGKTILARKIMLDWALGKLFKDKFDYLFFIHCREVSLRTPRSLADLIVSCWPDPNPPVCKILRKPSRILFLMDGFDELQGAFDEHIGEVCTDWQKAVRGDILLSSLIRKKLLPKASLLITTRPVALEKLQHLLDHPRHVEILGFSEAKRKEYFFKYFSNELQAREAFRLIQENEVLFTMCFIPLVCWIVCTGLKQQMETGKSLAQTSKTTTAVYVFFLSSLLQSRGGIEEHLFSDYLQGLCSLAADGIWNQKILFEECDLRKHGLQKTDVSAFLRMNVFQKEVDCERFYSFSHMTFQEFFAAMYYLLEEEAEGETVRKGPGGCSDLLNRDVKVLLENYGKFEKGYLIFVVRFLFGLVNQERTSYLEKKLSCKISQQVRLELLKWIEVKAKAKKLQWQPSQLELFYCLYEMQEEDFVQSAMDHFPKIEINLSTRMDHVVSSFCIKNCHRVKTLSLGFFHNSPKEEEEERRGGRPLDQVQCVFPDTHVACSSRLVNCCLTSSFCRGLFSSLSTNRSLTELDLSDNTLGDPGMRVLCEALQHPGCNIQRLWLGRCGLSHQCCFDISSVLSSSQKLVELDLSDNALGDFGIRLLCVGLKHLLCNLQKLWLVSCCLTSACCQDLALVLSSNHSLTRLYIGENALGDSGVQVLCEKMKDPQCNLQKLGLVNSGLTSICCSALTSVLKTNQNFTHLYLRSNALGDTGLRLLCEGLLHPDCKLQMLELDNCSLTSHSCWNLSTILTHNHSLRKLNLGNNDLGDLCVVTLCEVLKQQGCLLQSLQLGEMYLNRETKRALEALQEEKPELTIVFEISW

CO[C@@H]1COc2c(S(=O)(=O)NC(=O)Nc3c4c(cc5c3CCC5)CCC4)cnn2C1 [JT002]
formation of the caspase-1 p10 subunit (autocatalytic cleavage of pro-caspase-1) [1]: blocked formation of the p10 subunit and its release from the cell
IC50 (NLRP3 inflammasome [2]): 0.007 µM
IC50 (NLRP3 inflammasome [3]): 0.023 µM
IC50 (NLRP3 inflammasome [4]): 0.03 µM
